The text below walks through data of patent US4008331A, “Antidepressant 1,1a,6,10b-tetrahydrodibenzo-[a,e]-cyclopropa-[c]-cyclohepten-6-substitu ted oximes” (E. I. Du Pont de Nemours and Company, priority 1976, dated 1977).

Counter-ions that a name gives are not always drawn. Like-named read-outs stand apart in the source and are kept apart here.

Series [1] has as its system tetrabenazine-induced depression in mice. Description: Antagonism of tetrabenazine-induced sedation and depression in mice, orally at 1 hour post-drug. Type of series: in vivo, Carworth CF1 S female mice. The conditions noted are these: for ED50: Mus musculus, po, 1 h. The procedure:
Relief from ptosis was recorded when exactly 2 seconds after placing the mouse facing the observer, lid closure was less than 50% in both eyes.

Series [2] can be described thus: Hydrolytic stability in 0.5M hydrochloric acid at 25° for 20 hrs (NMR of residue). The series is classed as physicochemical. The procedure:
For example, a solution of 0.6 g of N-(2-methylaminoethyl)-1,1a,6,10b-tetrahydrodibenzo[a,e]cyclopropa[c]cyclohepten-6-imine in 20 ml of 0.5M hydrochloric acid was stirred at 25° for 20 hrs. The solution was cooled and 10 ml of 10% sodium hydroxide solution was added, and the oil was twice extracted with a solution of 25% methylene chloride in ether. The combined organic extracts were thoroughly washed with saturated brine, dried and solvent removed. The NMR spectrum of the residue (0.5 g) indicated about 40% decomposition of the imine to the ketone occurred.
This stability to hydrolysis is advantageous in preparation, storage, and use of pharmaceutical dosage forms.

The mark [3] stands for this setting: mice, oral, 1 hour post-drug, tetrabenazine 32 mg/kg intraperitoneally 30 minutes after compound, read-out: ED50 for prevention of exploratory loss.
[4] abbreviates: mice, oral, 1 hour post-drug, tetrabenazine 32 mg/kg intraperitoneally 30 minutes after compound, read-out: ED50 for prevention of ptosis.
Where [5] appears, read: mice, oral, 1 hour post-drug, tetrabenazine 32 mg/kg intraperitoneally 30 minutes after compound, 60 min.
The mark [6] stands for this setting: mice, oral, 1 hour post-drug, tetrabenazine 32 mg/kg intraperitoneally 30 minutes after compound, hydrochloride, 60 min.

On to `c1ccc2c(c1)C(=NOCCN1CCOCC1)c1ccccc1C1CC21` (centres unmarked), for which the ED50 in series [1] (setting [3]) was 3 mg/kg; in series [1] (setting [4]), 1 mg/kg.

For `NCCON=C1c2ccccc2C2CC2c2ccccc21` (centres unmarked) [H CH2 CH2 NH2 . HCl], the ED50 in series [1] (setting [4]) is 0.09 mg/kg. Further, the “ED50 for prevention of exploratory loss” value in series [1] (setting [5]) is on record as 0.10 mg/kg.

As to `CC(C)N(CCON=C1c2ccccc2C2CC2c2ccccc21)C(C)C` (centres unmarked) [H CH2 CH2 N[CH(CH3)2]2, 1,1a,6,10b-Tetrahydrodibenzo[a,e]cyclopropa[c]cyclohepten-6-one 0-[2-(diisopropylamino)ethyl]oxime], the results for the 50% effective dose (ED50) in series [1] (setting [3]) and in series [1] (setting [4]) were 5.2 mg/kg and 3.3 mg/kg, respectively.

With `CN(C)CCC=C1c2ccccc2CCc2ccccc21` [amitriptyline, reference compound], the figures for the ED50 in series [1] (setting [3]) and in series [1] (setting [4]) were 4.7 mg/kg and 1.7 mg/kg, respectively.

Regarding `CN(C)CCCN1c2ccccc2CCc2ccccc21` [imipramine, reference compound], the figures for the ED50 in series [1] (read-out: ED50 for prevention of exploratory loss) and in series [1] (read-out: ED50 for prevention of ptosis) were 3 mg/kg and 2.5 mg/kg, respectively.

As to `NCCON=C1c2ccccc2C2CC2c2ccccc21` (centres unmarked) [H CH2 CH2 NH2, 1,1a,6,10b-Tetrahydrodibenzo[a,e]cyclopropa[c]cyclohepten-6-one 0-(2-aminoethyl)oxime], the “ED50 for prevention of ptosis” value in series [1] (mice, oral, 1 hour post-drug, tetrabenazine 32 mg/kg intraperitoneally 30 minutes after compound) was 0.09 mg/kg. For the same compound, the “ED50 for prevention of exploratory loss” value in series [1] (setting [5]) is 0.25 mg/kg.

Take `CN(C)CCON=C1c2ccccc2C2CC2c2ccccc21` (centres unmarked) [H CH2 CH2 N(CH3)2 . HCl, 1,1a,6,10b-Tetrahydrodibenzo[a,e]cyclopropa[c]cyclohepten-6-one 0-[2-(dimethylamino)ethyl]oxime hydrochloride]: in series [1] (setting [6]), the “ED50 for prevention of exploratory loss” value is listed as 1.4 mg/kg and the “ED50 for prevention of ptosis” value was 0.5 mg/kg.

As for `CN(C)CCON=C1c2ccccc2C2CC2c2ccccc21` (centres unmarked) [H CH2 CH2 N(CH3)2, 1,1a,6,10b-Tetrahydrodibenzo[a,e]cyclopropa[c]cyclohepten-6-one 0-[2-(dimethylamino)ethyl]oxime], the results for the ED50 in series [1] (setting [3]) and in series [1] (setting [4]) were 2.3 mg/kg and 0.4 mg/kg, respectively.

`CNCCON=C1c2ccccc2C2CC2c2ccccc21` (centres unmarked) [H CH2 CH2 NHCH3, 1,1a,6,10b-Tetrahydrodibenzo[a,e]cyclopropa[c]cyclohepten-6-one 0-[2-(methylamino)ethyl]oxime]: the values for the ED50 in series [1] (setting [3]) and in series [1] (setting [4]) were 1.9 mg/kg and 0.33 mg/kg, respectively. In addition, in series [2] (same procedure: 0.5M hydrochloric acid), the “decomposition (in words)” value was “no detectable decomposition”.

Regarding `CN(C)CCCON=C1c2ccccc2C2CC2c2ccccc21` (centres unmarked) [H CH2 CH2 CH2 N(CH3)2, 1,1a,6,10b-Tetrahydrodibenzo[a,e]cyclopropa[c]cyclohepten-6-one 0-[3-(dimethylamino)propyl]oxime], the figures for the ED50 in series [1] (setting [3]) and in series [1] (setting [4]) were 15.6 mg/kg and 9 mg/kg, respectively.

For the compound `c1ccc2c(c1)C(=NOCCN1CCCCC1)c1ccccc1C1CC21` (centres unmarked), the ED50 was determined as 4.7 mg/kg in series [1] (setting [3]) and 1.7 mg/kg in series [1] (setting [4]).

Turning to `c1ccc2c(c1)C(=NOCCN1CCCC1)c1ccccc1C1CC21` (centres unmarked), the figures for the ED50 in series [1] (setting [3]) and in series [1] (setting [4]) were 10.4 mg/kg and 4.8 mg/kg, respectively.

Turning to `CNCCN=C1c2ccccc2C2CC2c2ccccc21` (centres unmarked) [N-(2-methylaminoethyl)-1,1a,6,10b-tetrahydrodibenzo[a,e]cyclopropa[c]cyclohepten-6-imine, reference compound], in series [2] (0.5 m hcl, 0.6 g in 20 ml of 0.5M hydrochloric acid, by NMR, read-out: decomposition of the imine to the ketone), the degraded at 20 h is approximately 40%.

By ED50 is commonly meant the dose at which the effect has come halfway, by size or by number of responders.
